Test results from ChEMBL document CHEMBL3885861, “Open TG-GATES”.

Species: Rattus norvegicus
Assay: Open TG-GATES - Regimen: Daily Repeat
Type: toxicity, organism-based, Sprague-Dawley
Parameters: regimen Daily Repeat, gender Male, age 6 weeks
Settings: in vivo, po, 0 mg/kg, route gavage, dose level Control; for APTT / Bas / Eos / Fbg / Hb / Ht / Lym / MCH / MCHC / MCV / Mono / Neu / PT / Plat / RBC / Ret / WBC: tissue Blood
[1] = 72 h, tissue Kidney, time 3 day
[2] = 72 h, tissue Plasma, time 3 day

`NC1=NC(=O)C(c2ccccc2)O1` (stereo unspecified) [PEMOLINE] was tested, and the TERMINAL_BW (72 h, time 3 day) was 236.5 g, the APTT (72 h, time 3 day) was 16.2 s and the Bas (72 h, time 3 day) was 0%. It also gave an Eos (72 h, time 3 day) of 1%, a Fbg (72 h, time 3 day) of 282.2 mg/dL and a Hb (72 h, time 3 day) of 13.4 g/dL. The Ht (72 h, time 3 day) was 39.7%, the Lym (72 h, time 3 day) was 77.6% and the MCH (72 h, time 3 day) was 21.7 pg. For the same compound, the MCHC (72 h, time 3 day) was 33.7%, the MCV (72 h, time 3 day) was 64.3 fL and the Mono (72 h, time 3 day) was 3.4%. It also gave a Neu (72 h, time 3 day) of 17.6%, a PT (72 h, time 3 day) of 12.8 s and a Plat (72 h, time 3 day) of 105.9 x10_4/uL. It also gave an RBC (72 h, time 3 day) of 617.8 x10_4/ul, a Ret (72 h, time 3 day) of 8% and a WBC (72 h, time 3 day) of 90 x10_2/uL. For the same compound, the KIDNEY_L [1] was 1 g, the KIDNEY_R [1] was 1 g and the KIDNEY_TOTAL [1] was 2 g. For the same compound, the LIVER (72 h, tissue Liver, time 3 day) was 11 g, the A/G [2] was 0.9 and the ALP [2] was 1625 IU/L. The ALT [2] was 43 IU/L, the AST [2] was 70 IU/L and the BUN [2] was 14.8 mg/dL. It also gave a CRE [2] of 0.2 mg/dL, a Ca [2] of 10.7 mg/dL and a Cl [2] of 105.8 meq/L. It also gave a DBIL [2] of 0.022 mg/dL, a GLC [2] of 184 mg/dL and an IP [2] of 7.6 mg/dL. It also gave a K [2] of 3.9 meq/L, an LDH [2] of 58.6 IU/L and a Na [2] of 143 meq/L. For the same compound, the PL [2] was 147.6 mg/dL, the RALB [2] was 2.6 g/dL and the TBIL [2] was 0.026 mg/dL. It also gave a TC [2] of 86 mg/dL, a TG [2] of 88.6 mg/dL and a TP [2] of 5.5 g/dL. For the same compound, the gamma-GTP [2] was 1 IU/L, the TERMINAL_BW ([…], time 7 day) was 274.2 g and the TERMINAL_BW ([…], time 14 day) was 326.9 g. For the same compound, the TERMINAL_BW ([…], time 28 day) was 438.2 g, the APTT ([…], time 7 day) was 17.2 s and the Bas ([…], time 7 day) was 0.2%. It also gave an Eos ([…], time 7 day) of 1%, a Fbg ([…], time 7 day) of 286.6 mg/dL and a Hb ([…], time 7 day) of 13.8 g/dL. The Ht ([…], time 7 day) was 40%, the Lym ([…], time 7 day) was 75.4% and the MCH ([…], time 7 day) was 21.6 pg. The MCHC ([…], time 7 day) was 34.4%, the MCV ([…], time 7 day) was 62.7 fL and the Mono ([…], time 7 day) was 3.4%. For the same compound, the Neu ([…], time 7 day) was 19.2%, the PT ([…], time 7 day) was 12.9 s and the Plat ([…], time 7 day) was 126.1 x10_4/uL. The RBC ([…], time 7 day) was 638.2 x10_4/ul, the Ret ([…], time 7 day) was 6.4% and the WBC ([…], time 7 day) was 103.3 x10_2/uL. It also gave an APTT ([…], time 14 day) of 17.8 s, a Bas ([…], time 14 day) of 0% and an Eos ([…], time 14 day) of 0.8%. It also gave a Fbg ([…], time 14 day) of 314 mg/dL, a Hb ([…], time 14 day) of 13.9 g/dL and a Ht ([…], time 14 day) of 39.7%. For the same compound, the Lym ([…], time 14 day) was 75.2%, the MCH ([…], time 14 day) was 21.3 pg and the MCHC ([…], time 14 day) was 35%. The MCV ([…], time 14 day) was 60.8 fL, the Mono ([…], time 14 day) was 2.2% and the Neu ([…], time 14 day) was 21.4%. It also gave a PT ([…], time 14 day) of 12.8 s, a Plat ([…], time 14 day) of 103.7 x10_4/uL and an RBC ([…], time 14 day) of 653.2 x10_4/ul. For the same compound, the Ret ([…], time 14 day) was 4.2%, the WBC ([…], time 14 day) was 86.4 x10_2/uL and the APTT ([…], time 28 day) was 17.4 s. It also gave a Bas ([…], time 28 day) of 0.2%, an Eos ([…], time 28 day) of 1% and a Fbg ([…], time 28 day) of 268.4 mg/dL. The Hb ([…], time 28 day) was 15.1 g/dL and the Ht ([…], time 28 day) was 42.3%.
